Source: patent publication US20070161568A1, “Use of GLP-1 peptides” (Novo Nordisk A/S, priority 1996, published 2007)
Where two headings read alike, the source gives them in different places. No end group written: not given here.

How the values were obtained:
[1] = test system: food intake in rats; conditions: cited from earlier work
[2] = test system: appetite suppression in mice; experiment: appetite suppression in mice: sucrose consumption, tested immediately after ip injection (Example 2); type: in vivo; conditions: 85 micrograms (equivalent to 3.4 mg/kg), 10 minute period, p-value 0.002
Experimental: Test method for measuring appetite suppression in mice.
Mice were deprived of their normal food for two days and given free access to a 20% sucrose solution on the first day of food deprivation. After the two day food deprivation period, the mice were injected intraperitoneally with 0.5 ml of a solution containing the test substance. Immediately after injection, individual mice were placed in one of eight 15 cm square test boxes with a stainless steel grid floor and a glass drinking tube which projected into the box. […] Consumption of the sucrose solution was measured over a 10 minute period by electronically recording the total amount of contact with the sucrose solution during the test session. The degree of appetite suppression produced by a given test substance was determined by statistical comparison of the mean duration of sucrose consumption by control (vehicle treated) mice with that of mice treated with a test substance. The degree of appetite suppression in a treated group of mice was expressed as percent difference between the test and control group's response duration means. […]

[3] = test system: food intake in normal human subjects; experiment: iv infusion of GLP-1(7-36)amide in a double-blind crossover trial: visual analogue scale ratings and ad libitum lunch energy intake; type: in vivo
Description: The effect of GLP-1(7-36)amide on food intake in normal human subjects.
Healthy human volunteers (20 subjects) were in a double-blind crossover trial given an iv infusion of 50 pmol/(kg·h) of GLP-1(7-36)amide or saline on separate, but otherwise identical experimental days. The infusion was started at 9.00 and lasted until 15.00. At 9.45 the subjects received a fixed amount of breakfast and at 14.15 they had lunch of an identical composition but ad libitum. The subjects rated their feeling of satiety, hunger, fullness and appetite on a visual analogue scale every half hour. The results are given below: • Satiety: GLP-1>Saline, p=0.006 • Hunger: GLP-1<Saline, p=0.007 • Fullness: GLP-1>Saline, p=0.010 • Appetite: GLP-1<Saline, p=0.007
The energy intake of each subjects was measured. The intakes were 3.9 MJ with GLP-1 and 4.3 MJ with Saline resulting in a p-value of 0.009.

[4] = healthy human volunteers, iv infusion 50 pmol/(kg·h) vs saline, p=0.007

GLP-1(1-36)amide (HDEFERHAEGTFTSDVSSYLEGQAAKEFIAWLVKGR-NH2; UniProt P01275 92-127, looked up, fragment) [GLP-1 fragment 1-36 as C-terminal amide, literature result]
effect on food intake ([1]; route not stated, Tang-Christensen et al.): no effect

GLP-1(7-36)amide (HAEGTFTSDVSSYLEGQAAKEFIAWLVKGR-NH2; UniProt P01275 98-127, looked up) [fragment 7-36 of GLP-1 as C-terminal amide]
suppression of sucrose consumption [2]: 60%
Satiety (visual analogue scale) ([3]; healthy human volunteers, iv infusion 50 pmol/(kg·h) vs saline, rated every half hour, p=0.006): GLP-1>Saline
Appetite (visual analogue scale) [3, 4]: GLP-1<Saline
Hunger (visual analogue scale) [3, 4]: GLP-1<Saline
Fullness (visual analogue scale) ([3]; healthy human volunteers, iv infusion 50 pmol/(kg·h) vs saline, p=0.010): GLP-1>Saline

GLP-1: proglucagon fragment 72-108, commonly referred to as GLP-1(1-37) or just GLP-1; in b61 it means GLP-1(7-36)amide
energy intake ([3]; ad libitum lunch, iv infusion 50 pmol/(kg·h), saline 4.3 MJ, p-value 0.009): 3.9 mJ
effect on food intake ([1]; administered intracerebroventricularly, Tang-Christensen et al.): profound effect
effect on food intake ([1]; administered intracerebroventricularly, Turton et al.): profound effect
effect on food intake ([1]; peripheral administration, Turton et al.): inactive
effect on food intake ([1]; peripherally administered, Tang-Christensen et al.): no significant effect
